Results as given in ChEMBL document CHEMBL1201862, “PubChem BioAssay data set” (2004).
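Method: 48-hour compound exposure of cells in 96-well plates, five concentrations, linear interpolation of endpoints. GI50 = concentration required for 50% inhibition of growth.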 Active and inactive are the calls of the source. Rule as the data show it: active = GI50 up to about 1.1 µM and inactive = higher.

Assays:
Assay in all cases: growth of human tumour cells (NCI), 48 h
A549 = system: A549
CCRF-CEM = system: CCRF-CEM
DU-145 = system: DU-145
HCC 2998 = system: HCC 2998
HCT-116 = system: HCT-116
HL-60 = system: HL-60
HOP-62 = system: HOP-62
HOP-92 = system: HOP-92
KM12 = system: KM12
MOLT-4 = system: MOLT-4
OVCAR-5 = system: OVCAR-5
PC-3 = system: PC-3
SF-268 = system: SF-268
SF-539 = system: SF-539
SK-MEL-5 = system: SK-MEL-5
SNB-19 = system: SNB-19
SR = system: SR
TK-10 = system: TK-10
UACC-62 = system: UACC-62
UO-31 = system: UO-31

Measured: GI50

O=C(c1ccc([N+](=O)[O-])cc1)N1CCCC1
inactive: A549 > 100 µM | CCRF-CEM > 100 µM | DU-145 > 100 µM | HCC 2998 > 100 µM | HCT-116 > 100 µM | HL-60 > 100 µM | HOP-62 > 100 µM | HOP-92 > 100 µM | KM12 > 100 µM | MOLT-4 > 100 µM | OVCAR-5 > 100 µM | PC-3 > 100 µM | SF-268 > 100 µM | SF-539 > 100 µM | SK-MEL-5 > 100 µM | SNB-19 > 100 µM | SR > 100 µM | TK-10 86.1 µM | UACC-62 66.1 µM | UO-31 > 100 µM

C=C(CCC(C)C1CCC2C3=C(C(=O)CC21C)C1(C)CCC(=O)[C@@H](C)C1CC3=O)C(C)C(=O)O (stereo not given in full)
inactive: A549 > 100 µM | CCRF-CEM 22.2 µM | DU-145 > 100 µM | HCC 2998 98.2 µM | HCT-116 50.9 µM | HL-60 14.7 µM | HOP-62 35.3 µM | HOP-92 30.8 µM | KM12 85.5 µM | MOLT-4 40.2 µM | OVCAR-5 > 100 µM | PC-3 33.6 µM | SF-268 > 100 µM | SF-539 > 100 µM | SK-MEL-5 31 µM | SNB-19 > 100 µM | SR 35.2 µM | TK-10 > 100 µM | UACC-62 49.5 µM | UO-31 15.2 µM

CC(C)NC(=O)OCc1c(COC(=O)NC(C)C)c(-c2ccc[n+](COC(=O)C(C)C)c2)n2c1CCC2
inactive: A549 > 91.4 µM | CCRF-CEM 17.2 µM | DU-145 65.8 µM | HCC 2998 > 100 µM | HCT-116 54.7 µM | HL-60 16 µM | HOP-62 > 63.5 µM | HOP-92 44.1 µM | KM12 > 100 µM | MOLT-4 13.6 µM | OVCAR-5 > 100 µM | PC-3 59.3 µM | SF-268 52.4 µM | SF-539 31.8 µM | SK-MEL-5 > 94.4 µM | SNB-19 > 100 µM | SR 8.53 µM | TK-10 > 91.4 µM | UACC-62 26.9 µM | UO-31 52.4 µM

CCCCCCCCCCCCCCCCP(=O)(O)OP(=O)(O)OCC1OC(n2cnc3c(N)ncnc32)C(O)C1O (stereo not given)
inactive: A549 33.5 µM | CCRF-CEM 29.6 µM | DU-145 46.9 µM | HCC 2998 22.5 µM | HCT-116 21.5 µM | HL-60 35.4 µM | HOP-62 19.5 µM | HOP-92 21.4 µM | KM12 26.1 µM | MOLT-4 17.3 µM | OVCAR-5 15.5 µM | PC-3 20.7 µM | SF-268 30.3 µM | SF-539 19.1 µM | SK-MEL-5 29 µM | SNB-19 20 µM | SR 45.5 µM | TK-10 15.6 µM | UACC-62 24.3 µM | UO-31 15.8 µM

Brc1ccc(/N=N/N2CCCC2)cc1
inactive: A549 74.1 µM | CCRF-CEM 42 µM | DU-145 49.7 µM | HCC 2998 40.6 µM | HCT-116 58.6 µM | HL-60 38.8 µM | HOP-62 > 100 µM | HOP-92 27.2 µM | KM12 70.3 µM | MOLT-4 28.6 µM | OVCAR-5 > 100 µM | PC-3 31.8 µM | SF-268 95.1 µM | SF-539 > 100 µM | SK-MEL-5 27.1 µM | SNB-19 > 100 µM | SR 34.6 µM | TK-10 82.4 µM | UACC-62 > 100 µM | UO-31 32.4 µM

COc1cccc2c1cc([N+](=O)[O-])c1c(C(=O)O)cc3c(c12)OCO3 [ARISTOLOCHIC ACID]
inactive: A549 45.9 µM | CCRF-CEM 20 µM | DU-145 30.1 µM | HCC 2998 2.8 µM | HCT-116 29.9 µM | HL-60 23.1 µM | HOP-62 23.7 µM | HOP-92 > 78 µM | KM12 27.3 µM | MOLT-4 26.7 µM | OVCAR-5 25.4 µM | PC-3 46.5 µM | SF-268 33.8 µM | SF-539 24.9 µM | SK-MEL-5 44 µM | SNB-19 37.5 µM | SR 21.7 µM | TK-10 46.9 µM | UACC-62 31.4 µM | UO-31 40.6 µM

COC(=O)C1=C(C)NC(C)=C(C(=O)OCCCN2CCC(c3ccccc3)(c3ccccc3)CC2)[C@H]1c1cccc([N+](=O)[O-])c1 [NIGULDIPINE]
inactive: A549 1.79 µM | CCRF-CEM 1.14 µM | DU-145 1.86 µM | HCC 2998 2.24 µM | HCT-116 1.51 µM | HL-60 1.16 µM | HOP-62 4.6 µM | HOP-92 1.39 µM | KM12 1.77 µM | MOLT-4 1.95 µM | OVCAR-5 2.9 µM | PC-3 1.52 µM | SF-268 1.79 µM | SF-539 1.8 µM | SK-MEL-5 1.75 µM | SNB-19 1.7 µM | SR 2.26 µM | TK-10 2.91 µM | UACC-62 1.61 µM | UO-31 2 µM
